Experimental data as given in patent US20250129027A1 (APOGEE PHARMACEUTICALS, INC., priority 2023, published 2025).

Assays:
human recombinant MAGL = human recombinant MAGL (Homo sapiens (Human), UniProt Q99685); test: In vitro inhibition of MAGL activity (inhibitor screening kit, 4-nitrophenylacetate); format: biochemical; conditions: human recombinant MAGL
Method: The inhibitory effect of the compounds on activity of human recombinant MAGL was also studied using a commercial inhibitor screening kit (Cayman Chemicals). In brief, MAGL hydrolyzes 4-nitrophenylacetate resulting in a yellow product, 4-nitrophenol with an absorbance at 405-412 nm, while the inhibitor will inhibit the MAGL activity and thus reduce the yellow signal. The absorbance of the yellow product can be analyzed using the plate reader. Inhibition is calculated as a percentage of the treated sample over the non-treated MAGL control based on the signal values.

human recombinant FAAH = human recombinant FAAH (Homo sapiens (Human), UniProt O00519); test: In vitro inhibition of FAAH activity (fluorescent inhibitor screening kit, AMC arachidonoyl amide); format: biochemical; conditions: human recombinant FAAH; read-out: Inhibition on FAAH activity (IC50)
Description: The inhibitory effect of compounds of Formula (I-IV) on the activity of human recombinant FAAH was studied using a commercial inhibitor screening kit (Cayman Chemicals, Godlewski et al., 2010 [19]). In brief, FAAH hydrolyzes AMC arachidonoyl amide resulting in the release of the fluorescent product, while the inhibitor will inhibit the FAAH activity and thus reduce the fluorescent signal. The resulting fluorophore can be analyzed using an excitation wavelength of 340-360 nm and an emission wavelength of 450-465 nm by a plate reader (Synergy H1, Biotek). Inhibition is calculated as a percentage of the treated sample over the non-treated control based on the signal values, and where possible, a range of concentrations of compounds was tested to find the IC50 values (i.e. the concentration of compound that inhibited 50% FAAH activity).

human recombinant FAAH, sequence (O00519 whole entry): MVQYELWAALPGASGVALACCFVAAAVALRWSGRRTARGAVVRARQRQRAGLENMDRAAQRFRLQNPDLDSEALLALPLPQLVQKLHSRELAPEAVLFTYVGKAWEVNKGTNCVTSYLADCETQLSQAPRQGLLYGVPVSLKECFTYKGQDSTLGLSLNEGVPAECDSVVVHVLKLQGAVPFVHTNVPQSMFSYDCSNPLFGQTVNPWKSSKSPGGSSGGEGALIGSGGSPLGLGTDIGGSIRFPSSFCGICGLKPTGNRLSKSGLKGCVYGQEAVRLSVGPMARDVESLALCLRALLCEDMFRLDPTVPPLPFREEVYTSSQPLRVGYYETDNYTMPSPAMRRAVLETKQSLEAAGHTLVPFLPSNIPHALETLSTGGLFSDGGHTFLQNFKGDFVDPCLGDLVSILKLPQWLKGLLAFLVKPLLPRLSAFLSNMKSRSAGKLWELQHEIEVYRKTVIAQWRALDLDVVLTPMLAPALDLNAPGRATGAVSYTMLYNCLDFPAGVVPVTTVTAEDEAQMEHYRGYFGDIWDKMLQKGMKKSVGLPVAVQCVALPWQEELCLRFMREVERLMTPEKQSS
human recombinant MAGL, sequence (Q99685 whole entry): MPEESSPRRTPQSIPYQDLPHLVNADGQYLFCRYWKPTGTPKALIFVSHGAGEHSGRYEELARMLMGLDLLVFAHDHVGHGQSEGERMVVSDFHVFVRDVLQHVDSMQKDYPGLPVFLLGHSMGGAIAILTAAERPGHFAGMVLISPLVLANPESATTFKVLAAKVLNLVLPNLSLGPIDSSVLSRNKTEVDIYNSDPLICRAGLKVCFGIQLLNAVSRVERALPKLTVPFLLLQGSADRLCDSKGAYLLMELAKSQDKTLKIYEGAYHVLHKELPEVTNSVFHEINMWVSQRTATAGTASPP

With `O=Cc1cncc(-c2cccc(OC(=O)NC3CCCC3)c2)c1` [Example 18, 3-(5-formylpyridin-3-yl)phenyl cyclopentylcarbamate] the IC50 (human recombinant MAGL) was greater than 10000 nM and the IC50 (human recombinant FAAH) was 10 to 100 nM.
For `O=Cc1cncc(-c2cccc(OC(=O)NC3CCCCCC3)c2)c1` [Example 20, 3-(5-formylpyridin-3-yl)phenyl cyclohepylcarbamate], the IC50 (human recombinant MAGL) was greater than 10000 nM and the IC50 (human recombinant FAAH) was 100 to 1000 nM.
`O=Cc1cncc(-c2cccc(OC(=O)NC34CC5CC(CC(C5)C3)C4)c2)c1` [Example 21, 3-(5-formylpyridin-3-yl)phenyl ((1s,3s)-adamantan-1-yl)carbamate] was tested, and the IC50 (human recombinant MAGL) was greater than 10000 nM and the IC50 (human recombinant FAAH) was greater than 1000 nM.
`CCCCCCCNC(=O)Oc1cccc(-c2cncc(C(=O)NO)c2)c1` [Example 22, 3-(5-(hydroxycarbamoyl)pyridin-3-yl)phenyl heptylcarbamate] was tested, and the IC50 (human recombinant MAGL) was greater than 1000 nM and the IC50 (human recombinant FAAH) was 10 to 1000 nM.
`CCCCCCCCNC(=O)Oc1cccc(-c2cncc(C(=O)NO)c2)c1` [Example 23, 3-(5-(hydroxycarbamoyl)pyridin-3-yl)phenyl octylcarbamate] gave an IC50 (human recombinant MAGL) greater than 10000 nM and an IC50 (human recombinant FAAH) greater than 1000 nM.
In the case of `CCCCCCCCNC(=O)Oc1cccc(-c2cncc(C(=O)NN)c2)c1` [Example 25, 3-(5-(hydrazinecarbonyl)pyridin-3-yl)phenyl octylcarbamate], the IC50 (human recombinant MAGL) is reported as greater than 10000 nM and the IC50 (human recombinant FAAH) is reported as greater than 1000 nM.
`N#Cc1cncc(-c2cccc(OC(=O)NC3CCCCC3)c2)c1` [Example 28, 3-(5-cyanopyridin-3-yl)phenyl cyclohexylcarbamate] gave an IC50 (human recombinant MAGL) greater than 10000 nM and an IC50 (human recombinant FAAH) of 100 to 1000 nM.
`N#Cc1cncc(-c2cccc(OC(=O)NC3CCCCCC3)c2)c1` [Example 29, 3-(5-cyanopyridin-3-yl)phenyl cycloheptylcarbamate] was tested, and the IC50 (human recombinant MAGL) was greater than 10000 nM and the IC50 (human recombinant FAAH) was roughly 100 nM.
With `O=C(NCC1CCCCC1)Oc1cccc(-c2cncc(C(F)(F)F)c2)c1` [Example 31, 3-(5-(trifluoromethyl)pyridin-3-yl)phenyl (cyclohexylmethyl)carbamate] the IC50 (human recombinant MAGL) was greater than 1000 nM and the IC50 (human recombinant FAAH) was 10 to 100 nM.
`O=C(NC1CCCC1)Oc1cccc(-c2cncc(C(F)(F)F)c2)c1` [Example 32, 3-(5-(trifluoromethyl)pyridin-3-yl)phenyl cyclopentylcarbamate] was tested, and the IC50 (human recombinant MAGL) was greater than 10000 nM and the IC50 (human recombinant FAAH) was 10 to 100 nM.
With `O=C(NC1CCCCC1)Oc1cccc(-c2cncc(C(F)(F)F)c2)c1` [Example 33, 3-(5-(trifluoromethyl)pyridin-3-yl)phenyl cyclohexylcarbamate] the IC50 (human recombinant MAGL) was greater than 10000 nM and the IC50 (human recombinant FAAH) was 100 to 1000 nM.
Work on `O=C(NC1CCCCCC1)Oc1cccc(-c2cncc(C(F)(F)F)c2)c1` [Example 34, 3-(5-(trifluoromethyl)pyridin-3-yl)phenyl cycloheptylcarbamate] yielded an IC50 (human recombinant MAGL) greater than 10000 nM and an IC50 (human recombinant FAAH) of 100 to 1000 nM.
`CCCCCCCCNC(=O)Oc1cccc(-c2cncc(-c3ccc[nH]3)c2)c1` [Example 35, 3-(5-(1H-pyrrol-2-yl)pyridin-3-yl)phenyl octylcarbamate] gave an IC50 (human recombinant MAGL) greater than 10000 nM and an IC50 (human recombinant FAAH) of 10 to 100 nM.
Compound `O=C(NCC1CCCCC1)Oc1cccc(-c2cncc(-c3ccc[nH]3)c2)c1` [Example 36, 3-(5-(1H-pyrrol-2-yl)pyridin-3-yl)phenyl (cyclohexylmethyl)carbamate] has an IC50 (human recombinant MAGL) of roughly 10000 nM and an IC50 (human recombinant FAAH) of 100 to 1000 nM.
`O=C(NCc1ccccc1)Oc1cccc(-c2cncc(-c3ccc[nH]3)c2)c1` [Example 37, 3-(5-(1H-pyrrol-2-yl)pyridin-3-yl)phenyl benzylcarbamate] gave an IC50 (human recombinant MAGL) greater than 10000 nM and an IC50 (human recombinant FAAH) of roughly 1000 nM.
For `O=C(NC1CCCC1)Oc1cccc(-c2cncc(-c3ccc[nH]3)c2)c1` [Example 38, 3-(5-(1H-pyrrol-2-yl)pyridin-3-yl)phenyl cyclopentylcarbamate], the IC50 (human recombinant MAGL) was greater than 10000 nM and the IC50 (human recombinant FAAH) was 100 to 1000 nM.
In the case of `O=C(NC1CCCCC1)Oc1cccc(-c2cncc(-c3ccc[nH]3)c2)c1` [Example 39, 3-(5-(1H-pyrrol-2-yl)pyridin-3-yl)phenyl cyclohexylcarbamate], the IC50 (human recombinant MAGL) is reported as greater than 10000 nM and the IC50 (human recombinant FAAH) is reported as 100 to 1000 nM.
Compound `O=C(NC1CCCCCC1)Oc1cccc(-c2cncc(-c3ccc[nH]3)c2)c1` [Example 40, 3-(5-(1H-pyrrol-2-yl)pyridin-3-yl)phenyl cycloheptylcarbamate] has an IC50 (human recombinant MAGL) of roughly 10000 nM and an IC50 (human recombinant FAAH) of 10 to 100 nM.
Compound `COc1ccc(OC(=O)NCC2CCCCC2)cc1-c1cncc(-c2ccc[nH]2)c1` [Example 42, 3-(5-(1H-pyrrol-2-yl)pyridin-3-yl)-4-methoxyphenyl (cyclohexylmethyl)carbamate] has an IC50 (human recombinant MAGL) of roughly 10000 nM and an IC50 (human recombinant FAAH) of 100 to 1000 nM.
Work on `COc1ccc(OC(=O)NCc2ccccc2)cc1-c1cncc(-c2ccc[nH]2)c1` [Example 43, 3-(5-(1H-pyrrol-2-yl)pyridin-3-yl)-4-methoxyphenyl benzylcarbamate] yielded an IC50 (human recombinant MAGL) greater than 10000 nM and an IC50 (human recombinant FAAH) greater than 1000 nM.
`COc1ccc(OC(=O)NC2CCCC2)cc1-c1cncc(-c2ccc[nH]2)c1` [Example 44, 3-(5-(1H-pyrrol-2-yl)pyridin-3-yl)-4-methoxyphenyl cyclopentylcarbamate] showed an IC50 (human recombinant MAGL) greater than 10000 nM and an IC50 (human recombinant FAAH) greater than 1000 nM.
Compound `COc1ccc(OC(=O)NC2CCCCC2)cc1-c1cncc(-c2ccc[nH]2)c1` [Example 45, 3-(5-(1H-pyrrol-2-yl)pyridin-3-yl)-4-methoxyphenyl cyclohexylcarbamate] has an IC50 (human recombinant MAGL) greater than 10000 nM and an IC50 (human recombinant FAAH) greater than 1000 nM.
`COc1ccc(OC(=O)NC2CCCCCC2)cc1-c1cncc(-c2ccc[nH]2)c1` [Example 46, 3-(5-(1H-pyrrol-2-yl)pyridin-3-yl)-4-methoxyphenyl cycloheptylcarbamate] showed an IC50 (human recombinant MAGL) greater than 10000 nM and an IC50 (human recombinant FAAH) of 100 to 1000 nM.
`O=C(NCC1CCCCC1)Oc1cccc(-c2cncc(-c3ccco3)c2)c1` [Example 48, 3-(5-(furan-2-yl)pyridin-3-yl)phenyl (cyclohexylmethyl)carbamate] showed an IC50 (human recombinant MAGL) of roughly 10000 nM and an IC50 (human recombinant FAAH) of 10 to 100 nM.
`O=C(NCc1ccccc1)Oc1cccc(-c2cncc(-c3ccco3)c2)c1` [Example 49, 3-(5-(furan-2-yl)pyridin-3-yl)phenyl benzylcarbamate] gave an IC50 (human recombinant MAGL) greater than 10000 nM and an IC50 (human recombinant FAAH) of 100 to 1000 nM.
With `O=C(NC1CCCC1)Oc1cccc(-c2cncc(-c3ccco3)c2)c1` [Example 50, 3-(5-(furan-2-yl)pyridin-3-yl)phenyl cyclopentylcarbamate] the IC50 (human recombinant MAGL) was roughly 10000 nM and the IC50 (human recombinant FAAH) was 10 to 100 nM.
For `O=C(NC1CCCCCC1)Oc1cccc(-c2cncc(-c3ccco3)c2)c1` [Example 52, 3-(5-(furan-2-yl)pyridin-3-yl)phenyl cycloheptylcarbamate], the IC50 (human recombinant MAGL) was roughly 10000 nM and the IC50 (human recombinant FAAH) was 10 to 100 nM.
With `CCCCCCCCNC(=O)Oc1ccc(OC)c(-c2cncc(-c3ccco3)c2)c1` [Example 53, 3-(5-(furan-2-yl)pyridin-3-yl)-4-methoxyphenyl octylcarbamate] the IC50 (human recombinant MAGL) was roughly 10000 nM and the IC50 (human recombinant FAAH) was 10 to 100 nM.
Work on `COc1ccc(OC(=O)NCC2CCCCC2)cc1-c1cncc(-c2ccco2)c1` [Example 54, 3-(5-(furan-2-yl)pyridin-3-yl)-4-methoxyphenyl (cyclohexylmethyl)carbamate] yielded an IC50 (human recombinant MAGL) of roughly 10000 nM and an IC50 (human recombinant FAAH) of 100 to 1000 nM.
`COc1ccc(OC(=O)NCc2ccccc2)cc1-c1cncc(-c2ccco2)c1` [Example 55, 3-(5-(furan-2-yl)pyridin-3-yl)-4-methoxyphenyl benzylcarbamate] gave an IC50 (human recombinant MAGL) of roughly 10000 nM and an IC50 (human recombinant FAAH) of roughly 1000 nM.
`COc1ccc(OC(=O)NC2CCCC2)cc1-c1cncc(-c2ccco2)c1` [Example 56, 3-(5-(furan-2-yl)pyridin-3-yl)-4-methoxyphenyl cyclopentylcarbamate] showed an IC50 (human recombinant MAGL) greater than 10000 nM and an IC50 (human recombinant FAAH) of 100 to 1000 nM.
`COc1ccc(OC(=O)NC2CCCCC2)cc1-c1cncc(-c2ccco2)c1` [Example 57, 3-(5-(furan-2-yl)pyridin-3-yl)-4-methoxyphenyl cyclohexylcarbamate] gave an IC50 (human recombinant MAGL) greater than 10000 nM and an IC50 (human recombinant FAAH) of 100 to 1000 nM.
`COc1ccc(OC(=O)NC2CCCCCC2)cc1-c1cncc(-c2ccco2)c1` [Example 58, 3-(5-(furan-2-yl)pyridin-3-yl)-4-methoxyphenyl cycloheptylcarbamate] gave an IC50 (human recombinant MAGL) greater than 10000 nM and an IC50 (human recombinant FAAH) of 100 to 1000 nM.
With `CCCCCCCCNC(=O)Oc1cccc(-c2cncc(-c3cccs3)c2)c1` [Example 59, 3-(5-(thiophen-2-yl)pyridin-3-yl)phenyl octylcarbamate] the IC50 (human recombinant MAGL) was greater than 10000 nM and the IC50 (human recombinant FAAH) was 10 to 100 nM.
Work on `O=C(NCC1CCCCC1)Oc1cccc(-c2cncc(-c3cccs3)c2)c1` [Example 60, 3-(5-(thiophen-2-yl)pyridin-3-yl)phenyl (cyclohexylmethyl)carbamate] yielded an IC50 (human recombinant MAGL) greater than 10000 nM and an IC50 (human recombinant FAAH) of 10 to 100 nM.
`O=C(NCc1ccccc1)Oc1cccc(-c2cncc(-c3cccs3)c2)c1` [Example 61, 3-(5-(thiophen-2-yl)pyridin-3-yl)phenyl benzylcarbamate] showed an IC50 (human recombinant MAGL) greater than 10000 nM and an IC50 (human recombinant FAAH) of roughly 100 nM.
`O=C(NC1CCCC1)Oc1cccc(-c2cncc(-c3cccs3)c2)c1` [Example 62, 3-(5-(thiophen-2-yl)pyridin-3-yl)phenyl cyclopentylcarbamate] was tested, and the IC50 (human recombinant MAGL) was roughly 10000 nM and the IC50 (human recombinant FAAH) was 10 to 100 nM.
In the case of `O=C(NC1CCCCC1)Oc1cccc(-c2cncc(-c3cccs3)c2)c1` [Example 63, 3-(5-(thiophen-2-yl)pyridin-3-yl)phenyl cyclohexylcarbamate], the IC50 (human recombinant MAGL) is reported as greater than 10000 nM and the IC50 (human recombinant FAAH) is reported as 10 to 100 nM.
Compound `COc1ccc(OC(=O)NCC2CCCCC2)cc1-c1cncc(-c2cccs2)c1` [Example 66, 4-methoxy-3-(5-(thiophen-2-yl)pyridin-3-yl)phenyl (cyclohexylmethyl)carbamate] has an IC50 (human recombinant MAGL) of roughly 10000 nM and an IC50 (human recombinant FAAH) of 100 to 1000 nM.
